Laboratory results reported in paper PMC5716993, “The interdomain flexible linker of the polypeptide GalNAc transferases dictates their long-range glycosylation preferences” (Nature Communications, 2017).
Entries after “also recorded” stand apart in the source; their conditions may differ.

Target: T1, GalNAc-T4 (Homo sapiens, UniProt Q8N4A0)
T1 construct: amino acid residues 36–578 of the human GalNAc-T4; histidine tag (C); made in house; host or cells: Pichia pastoris SMD1168 (pPICZαA, secreted)
T1 sequence (Q8N4A0 36-578): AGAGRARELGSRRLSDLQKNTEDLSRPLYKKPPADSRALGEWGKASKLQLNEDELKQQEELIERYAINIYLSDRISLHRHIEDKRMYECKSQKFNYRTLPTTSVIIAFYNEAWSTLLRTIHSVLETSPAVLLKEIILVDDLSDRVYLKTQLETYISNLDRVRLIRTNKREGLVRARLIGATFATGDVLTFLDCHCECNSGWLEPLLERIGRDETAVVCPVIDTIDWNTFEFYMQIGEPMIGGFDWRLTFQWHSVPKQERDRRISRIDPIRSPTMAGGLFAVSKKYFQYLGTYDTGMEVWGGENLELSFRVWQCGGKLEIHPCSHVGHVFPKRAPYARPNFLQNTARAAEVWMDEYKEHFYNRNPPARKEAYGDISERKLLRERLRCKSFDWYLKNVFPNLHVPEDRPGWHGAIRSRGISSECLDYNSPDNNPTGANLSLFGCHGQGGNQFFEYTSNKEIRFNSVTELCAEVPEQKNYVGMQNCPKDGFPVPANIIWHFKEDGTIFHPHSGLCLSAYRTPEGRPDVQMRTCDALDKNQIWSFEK
Experiment: STD-NMR binding / epitope mapping
Settings: for STD-NMR signals of the GalNAc sugar protons: GalNAc moiety, UDP, pH 7.4; for STD-NMR signals of the GalNAc sugar protons / STD-NMR signals (peptide recognition): ~880 μM ligand, 13.5 μM GalNAc-T4, 298 K; for STD-NMR signals of the GalNAc sugar protons / STD-NMR signals (peptide recognition) / STD-NMR-derived epitope mapping of GalNAc moiety: in words; for STD-NMR signals (peptide recognition): in presence of UDP and MnCl2 (75 μM each), pH 7.4 uncorrected, TRIS-d11 D2O; for STD-NMR-derived epitope mapping of GalNAc moiety: normalized to the highest STD response
Method: All NMR experiments were recorded on a Bruker Avance 600 MHz spectrometer equipped with a triple channel cryoprobe head. The^1H NMR resonances of the peptides 1–3 were completely assigned through standard 2D-TOCSY (30 and 80 ms mixing time) and 2D-NOESY experiments (400 ms mixing time). Solution conditions used for the NMR characterization studies were 1–3 mM (glyco)peptide, 25 mM perdeuterated tris-d11 in 90:10 H2O/D2O, 7.5 mM NaCl, and 1 mM DTT, uncorrected pH 7.4. The assignments were accomplished either at 278 or 298 K. The resonance of 2,2,3,3-tetradeutero-3-trimethylsilylpropionic acid (TSP) was used as a chemical shift reference in the^1H NMR experiments (δ TSP = 0 ppm). Peak lists for the 2D-TOCSY and 2D-NOESY spectra were generated by interactive peak picking using the computer aided resonance assignment (CARA) software.
Samples for STD experiments were prepared in perdeuterated 25 mM TRIS-d11 in deuterated water, 7.5 mM NaCl, and 1 mM DTT, uncorrected pH 7.4. STD-NMR experiments were performed at 298 K in the presence of 75 μM UDP, 75 μM MnCl2 with ~880 μM peptide (or GalNAc-O-Me) and 13.5 μM GalNAc-T4 giving a molar ratio of 65:1 peptide:GalNAc-T4.
The STD-NMR spectra were acquired with 1920 transients in a matrix with 64 k data points in t2 in a spectral window of 12335.53 Hz centered at 2819.65 Hz. An excitation sculpting module with gradients was employed to suppress the water proton signals. Selective saturation of the protein resonances (on resonance spectrum) was performed by irradiating at −1 ppm using a series of Eburp2.1000-shaped 90° pulses (50 ms, 1 ms delay between pulses) for a total saturation time of 2.0 s. For the reference spectrum (off resonance), the samples were irradiated at 100 ppm. Proper control experiments were performed with the ligands in the presence and absence of the protein in order to optimize the frequency for protein saturation (−1 ppm) and to ensure that the ligand signals were not affected. […] This nonspecific saturation was taken into account, by subtraction, when quantifying the STD-NMR data in the presence of the transferase. As well, a blank STD experiment with only the protein was also recorded. The substraction of this protein STD spectrum allowed eliminating the signal background of the protein. In all cases, to accomplish the STD-NMR-derived epitope mapping of each ligand, the STD-NMR total intensities were normalized with respect to the highest STD-NMR response. For Fig. 2b and Supplementary Fig. 1, the STD response of each amino acid corresponds to the average of STD percentages of all amino acid proton resonances that were measured with sufficient accuracy. The signal of the anomeric proton of as well as, the Hα protons of the Ala amino acids of glycopeptides could not be analyzed in the STD-NMR spectra due to their close proximity to the HDO resonance. Proton resonances, from Gly and Pro, appear in the same chemical shift region of the spectrum and were not discriminated.

Substance	STD-NMR signals of the GalNAc sugar protons (MnCl2)	STD-NMR signals (peptide recognition)	STD-NMR-derived epitope mapping of GalNAc moiety (298 K, pH 7.4, UDP, MnCl2)	STD response, GalNAc H3 (H3 of GalNAc moiety, normalized to highest STD response, 298 K, pH 7.4, UDP, MnCl2)	STD response, GalNAc H4 (H4 of GalNAc moiety, normalized to highest STD response, 298 K, pH 7.4, UDP, MnCl2)
AGAGTTPGPGAGAT*GA [Peptide 2, monoglycopeptide …*GA, T* denotes the Thr-O-GalNAc moiety]	unambiguous and more intense STD-NMR signals; also recorded: GalNAc protons receive much more saturation than the amino acid residues	relatively weak STD-NMR signals were observed for the Ala and Thr methyl protons	the highest STD response corresponded to the H2 proton of the GalNAc moiety followed by a modest STD of protons H4, H3, and N-acetyl group		
GAT*GAGAGAGTTPGPG [Peptide 3, monoglycopeptide GAT*…, T* denotes the Thr-O-GalNAc moiety]	unambiguous and more intense STD-NMR signals; also recorded: GalNAc protons receive much more saturation than the amino acid residues	relatively weak STD-NMR signals were observed for the Ala and Thr methyl protons; also recorded: no significant STD with the acceptor peptide residues	H2, H4, and the N-acetyl group of the GalNAc moiety have the highest STD-NMR response closely followed by the H3 proton	72%	92%
